{"source": "patent US11179379B2", "about": "“Compositions and methods for hemoglobin production” (THE CHILDREN'S HOSPITAL OF PHILADELPHIA, priority 2017, dated 2021)", "key": {"eIF2αK1": {"test_system": "eIF2αK1", "conditions": "literature reports; cited from earlier work"}, "[1]": {"test_system": "HUDEP-2 expressing Cas9 cells", "assay": "Combination of eIF2αK1 gRNA and pomalidomide, HbF positive cells", "type": "cell-based, human", "conditions": "pomalidomide in combination with eIF2αK1 inhibition (eIF2αK1 gRNA #3 or #5); three independent experiments", "procedure": "FIG. 3 is a graph of the percentage of cells positive for HbF expression. HUDEP-2 expressing Cas9 cells were transduced with eIF2αK1 sgRNA #3, eIF2αK1 sgRNA #5, a gRNA targeting BCL11A exon 2, or a negative control gRNA. Cells were then incubated with or without pomalidomide. n=3.\nCombination experiments with the immunomodulatory pomalidomide, which is an HbF inducer, were also performed. If eIF2αK1 inhibition works at least in part by altering protein translation, additive effects may be observed when using compounds that predominantly affect transcription of fetal globin genes. Briefly, HUDEP-2 expressing Cas9 cells were transduced with eIF2αK1 gRNA #3, eIF2αK1 gRNA #5, a gRNA targeting BCL11A exon 2, or a negative control gRNA. The cells were then incubated with or without pomalidomide. […] Indeed, the results with pomalidomide in combination with eIF2αK1 inhibition were very strong in three independent experiments, even stronger than those observed with Bcl11A inhibition and pomalidomide."}}, "data": [{"compound": "C=CC1=C(C)c2cc3[n-]c(cc4[n-]c(cc5nc(cc1n2)C(C)=C5C=C)c(C)c4CCC(=O)O)c(CCC(=O)O)c3C.[Fe+2]", "note": "[Fe(II)-heme]", "values": [{"measurement": "inhibition of eIF2αK1 activity", "setting": "eIF2αK1", "value": "inhibit eIF2αK1 activity"}]}, {"compound": "C=CC1=C(C)c2cc3[n-]c(cc4[n-]c(cc5nc(cc1n2)C(C)=C5C=C)c(C)c4CCC(=O)O)c(CCC(=O)O)c3C.[Cl-].[Fe+3]", "note": "[Fe(III)-hemin]", "values": [{"measurement": "inhibition of eIF2αK1 activity", "setting": "eIF2αK1", "value": "inhibit eIF2αK1 activity"}]}, {"compound": "O=c1c(O)c(-c2ccc(O)c(O)c2)oc2cc(O)cc(O)c12", "note": "[Quercetin]", "values": [{"measurement": "inhibition of eIF2αK1 activity", "setting": "eIF2αK1", "value": "ATP-competitive kinase inhibitor of eIF2αK1"}]}, {"compound": "C=CC1=C(C)/C(=C/C2=NC(=C\\c3[nH]c(/C=C4\\NC(=O)C(C)=C4C=C)c(C)c3CCC(=O)O)/C(CCC(=O)O)=C2C)NC1=O", "note": "[biliverdin]", "values": [{"measurement": "inhibition of eIF2αK1 activity", "setting": "eIF2αK1", "value": "inhibit eIF2αK1 activity"}]}, {"compound": "Nc1cccc2c1C(=O)N(C1CCC(=O)NC1=O)C2=O", "note": "(stereo not drawn) [pomalidomide]", "values": [{"measurement": "number of HbF positive cells", "setting": "[1]", "value": "greatly increased"}]}, {"compound": "uroporphyrin", "values": [{"measurement": "inhibition of eIF2αK1 activity", "setting": "eIF2αK1", "value": "inhibit eIF2αK1 activity"}]}]}
